{
  "source": "patent US5100785A",
  "about": "“Polycyclic ether antibiotic” (Pfizer Inc., priority 1984, dated 1992)",
  "key": {"Streptococcus pyogenes": {"system": "Streptococcus pyogenes", "test": "in vitro antibacterial activity (MIC), Streptococcus pyogenes", "type": "cell-based", "details": "strain 020303; 24 hours"}, "[1]": {"system": "Fusobacterium necrophorum", "test": "in vitro antibacterial activity (MIC), Fusobacterium necrophorum", "type": "cell-based", "details": "strain 84C004; 24 hours"}, "Pseudomonas aeruginosa": {"system": "Pseudomonas aeruginosa", "test": "in vitro antibacterial activity (MIC), Pseudomonas aeruginosa", "type": "cell-based", "details": "gram-negative; 24 hours", "description": "(§1) In Table I, below, the results of in vitro tests are summarized. For this test each organism is innoculated in a series of test tubes containing nutrient medium and varying concentrations of Antibiotic UK-58,852 to determine the minimal concentration of the compound in mcg./ml. which inhibits the growth of the organism over a period of 24 hours (MIC)."}, "[2]": {"system": "Actinobacillus pleuropneumoniae", "test": "in vitro antibacterial activity (MIC), Actinobacillus pleuropneumoniae", "type": "cell-based", "details": "strain 54B004; 24 hours"}, "Streptococcus faecalis": {"system": "Streptococcus faecalis", "test": "in vitro antibacterial activity (MIC), Streptococcus faecalis", "type": "cell-based", "details": "strain 02A006; 24 hours"}, "Klebsiella pneumoniae": {"system": "Klebsiella pneumoniae", "test": "in vitro antibacterial activity (MIC), Klebsiella pneumoniae", "type": "cell-based", "details": "gram-negative; 24 hours", "description": "as §1"}, "Treponema hyodysenteriae": {"system": "Treponema hyodysenteriae", "test": "in vitro antibacterial activity (MIC), Treponema hyodysenteriae", "type": "cell-based", "details": "strain 94A007; 24 hours"}, "Staphylococcus aureus": {"system": "Staphylococcus aureus", "test": "in vitro antibacterial activity (MIC), Staphylococcus aureus", "type": "cell-based", "details": "24 hours", "description": "as §1"}, "Pasteurella multocida": {"system": "Pasteurella multocida", "test": "in vitro antibacterial activity (MIC), Pasteurella multocida", "type": "cell-based", "details": "strain 59A006; 24 hours"}, "Escherischia coli": {"system": "Escherischia coli", "test": "in vitro antibacterial activity (MIC), Escherischia coli", "type": "cell-based", "details": "gram-negative; 24 hours", "description": "as §1"}, "Serratia marcescens": {"system": "Serratia marcescens", "test": "in vitro antibacterial activity (MIC), Serratia marcescens", "type": "cell-based", "details": "gram-negative; 24 hours", "description": "as §1"}, "Actinomyces pyogenes": {"system": "Actinomyces pyogenes", "test": "in vitro antibacterial activity (MIC), Actinomyces pyogenes", "type": "cell-based", "details": "strain 14D011; 24 hours"}, "Bacteroides fragilis": {"system": "Bacteroides fragilis", "test": "in vitro antibacterial activity (MIC), Bacteroides fragilis", "type": "cell-based", "details": "strain 78C024; 24 hours"}, "[3]": {"system": "Enterobacteriaceae aerogenes", "test": "in vitro antibacterial activity (MIC), Enterobacteriaceae aerogenes", "type": "cell-based", "details": "gram-negative; 24 hours", "description": "as §1"}, "Eimeria acervulina": {"system": "Eimeria acervulina", "test": "in vivo anticoccidial activity in chickens, Eimeria acervulina", "details": "chickens, after five days"}, "Eimeria tenella": {"system": "Eimeria tenella", "test": "in vivo anticoccidial activity in chickens, Eimeria tenella", "details": "chickens, after six days"}, "rumen fluid": {"system": "rumen fluid", "test": "in vitro rumen technique, propionic acid production", "details": "10 mcg/ml.; 39° C., about 16 hours; separate experiment with CP-70,228"}},
  "data": [
    {"smiles": "COC1CCC(OC2CC(C3OC(C)(OC)C(C)CC3C)OC2C2(C)CCC(C3(C)CCC4(CC(O)C(C)C(C(C)C5OC(O)(CC(=O)[O-])C(C)C(OC6CCC(OC)C(C)O6)C5OC)O4)O3)O2)OC1C.[Na+]", "note": "(stereo not drawn) [CP-70,228 Sodium Salt]", "values": [
      {"measurement": "MIC", "setting": "Streptococcus pyogenes", "result": 0.10, "unit": "µg/mL"},
      {"measurement": "MIC", "setting": "[1]", "result": "> 100", "unit": "µg/mL"},
      {"measurement": "MIC", "setting": "Pseudomonas aeruginosa", "result": "> 50", "unit": "µg/mL"},
      {"measurement": "MIC", "setting": "[2]", "result": "> 100", "unit": "µg/mL"},
      {"measurement": "MIC", "setting": "Streptococcus faecalis", "result": 50, "unit": "µg/mL"},
      {"measurement": "MIC", "setting": "Klebsiella pneumoniae", "result": "> 50", "unit": "µg/mL"},
      {"measurement": "MIC", "setting": "Treponema hyodysenteriae", "result": 1.58, "unit": "µg/mL"},
      {"measurement": "MIC", "setting": "Staphylococcus aureus; strain 01A005", "result": 3.12, "unit": "µg/mL"},
      {"measurement": "MIC", "setting": "Staphylococcus aureus; strain 01A052", "result": 3.12, "unit": "µg/mL"},
      {"measurement": "MIC", "setting": "Staphylococcus aureus; strain 01A110", "result": 3.12, "unit": "µg/mL"},
      {"measurement": "MIC", "setting": "Staphylococcus aureus; strain 01A400", "result": 6.25, "unit": "µg/mL"},
      {"measurement": "MIC", "setting": "Pasteurella multocida", "result": "> 100", "unit": "µg/mL"},
      {"measurement": "MIC", "setting": "Escherischia coli", "result": "> 50", "unit": "µg/mL"},
      {"measurement": "MIC", "setting": "Serratia marcescens", "result": "> 50", "unit": "µg/mL"},
      {"measurement": "MIC", "setting": "Actinomyces pyogenes", "result": 0.34, "unit": "µg/mL"},
      {"measurement": "MIC", "setting": "Bacteroides fragilis", "result": 12.5, "unit": "µg/mL"},
      {"measurement": "MIC", "setting": "[3]", "result": "> 50", "unit": "µg/mL"}
    ]},
    {"smiles": "COC1CCC(OC2CC(C3OC(C)(OC)C(C)CC3C)OC2C2(C)CCC(C3(C)CCC4(CC(O)C(C)C(C(C)C5OC(O)(CC(=O)O)C(C)C(OC6CCC(OC)C(C)O6)C5OC)O4)O3)O2)OC1C", "note": "(stereo not drawn) [CP-70,228]", "values": [
      {"measurement": "AVERAGE DEGREE OF INFECTION", "setting": "Eimeria acervulina; 25 ppm in feed", "result": 1.2},
      {"measurement": "WEIGHT GAIN (PERCENT)", "setting": "Eimeria acervulina; 25 ppm in feed", "result": 40, "unit": "%"},
      {"measurement": "AVERAGE DEGREE OF INFECTION", "setting": "Eimeria acervulina; 50 ppm in feed", "result": 0.0},
      {"measurement": "WEIGHT GAIN (PERCENT)", "setting": "Eimeria acervulina; 50 ppm in feed", "result": 70, "unit": "%"},
      {"measurement": "AVERAGE DEGREE OF INFECTION", "setting": "Eimeria acervulina; 75 ppm in feed", "result": 0.0},
      {"measurement": "WEIGHT GAIN (PERCENT)", "setting": "Eimeria acervulina; 75 ppm in feed", "result": 100, "unit": "%"},
      {"measurement": "AVERAGE DEGREE OF INFECTION", "setting": "Eimeria acervulina; 100 ppm in feed", "result": 0.0},
      {"measurement": "WEIGHT GAIN (PERCENT)", "setting": "Eimeria acervulina; 100 ppm in feed", "result": 100, "unit": "%"},
      {"measurement": "AVERAGE DEGREE OF INFECTION", "setting": "Eimeria tenella; 25 ppm in feed", "result": 2.7},
      {"measurement": "WEIGHT GAIN (PERCENT)", "setting": "Eimeria tenella; 25 ppm in feed", "result": 80, "unit": "%"},
      {"measurement": "AVERAGE DEGREE OF INFECTION", "setting": "Eimeria tenella; 50 ppm in feed", "result": 1.3},
      {"measurement": "WEIGHT GAIN (PERCENT)", "setting": "Eimeria tenella; 50 ppm in feed", "result": 103, "unit": "%"},
      {"measurement": "AVERAGE DEGREE OF INFECTION", "setting": "Eimeria tenella; 75 ppm in feed", "result": 0.3},
      {"measurement": "WEIGHT GAIN (PERCENT)", "setting": "Eimeria tenella; 75 ppm in feed", "result": 63, "unit": "%"},
      {"measurement": "AVERAGE DEGREE OF INFECTION", "setting": "Eimeria tenella; 100 ppm in feed", "result": 0.0},
      {"measurement": "WEIGHT GAIN (PERCENT)", "setting": "Eimeria tenella; 100 ppm in feed", "result": 95, "unit": "%"},
      {"measurement": "increase in propionic acid production", "setting": "rumen fluid", "result": "about 30%"}
    ]},
    {"smiles": "COC1CCC(OC2CC(C3OC(C)(OC)C(C)CC3C)OC2C2(C)CCC(C3(C)CCC4(CC(OC)C(C)C(C(C)C5OC(O)(CC(=O)[O-])C(C)C(OC6CCC(OC)C(C)O6)C5OC)O4)O3)O2)OC1C.[Na+]", "note": "(stereo not drawn) [CP-70,828 Sodium Salt]", "values": [
      {"measurement": "MIC", "setting": "Streptococcus pyogenes", "result": 3.12, "unit": "µg/mL"},
      {"measurement": "MIC", "setting": "Pseudomonas aeruginosa", "result": "> 50", "unit": "µg/mL"},
      {"measurement": "MIC", "setting": "Streptococcus faecalis", "result": "> 50", "unit": "µg/mL"},
      {"measurement": "MIC", "setting": "Klebsiella pneumoniae", "result": "> 50", "unit": "µg/mL"},
      {"measurement": "MIC", "setting": "Staphylococcus aureus; strain 01A005", "result": 25, "unit": "µg/mL"},
      {"measurement": "MIC", "setting": "Staphylococcus aureus; strain 01A052", "result": 25, "unit": "µg/mL"},
      {"measurement": "MIC", "setting": "Staphylococcus aureus; strain 01A110", "result": 25, "unit": "µg/mL"},
      {"measurement": "MIC", "setting": "Staphylococcus aureus; strain 01A400", "result": 25, "unit": "µg/mL"},
      {"measurement": "MIC", "setting": "Escherischia coli", "result": "> 50", "unit": "µg/mL"},
      {"measurement": "MIC", "setting": "Serratia marcescens", "result": "> 50", "unit": "µg/mL"},
      {"measurement": "MIC", "setting": "[3]", "result": "> 50", "unit": "µg/mL"}
    ]}
  ]
}
